Results published in patent US20250195521A1 (Revolution Medicines, Inc., priority 2020, published 2025).

How the values were obtained:
[1] = target: T1, NRAS Q61K (Homo sapiens (Human), UniProt P01111+P62937, Q61K); experiment: Ras-Raf disruption/FRET/MOA assay, NRAS Q61K; format: biochemical; details: read-out: NRAS Q61K FRET data IC50
Description: (§1) Disruption of B-Raf Ras-Binding Domain (BRAF^RBD) Interaction with K-Ras by Compounds of the Invention (Also Called a FRET Assay or an MOA Assay)
(§2) Note—The following protocol describes a procedure for monitoring disruption of K-Ras G12C (GMP-PNP) binding to BRAF^RBD by a compound of the invention. This protocol may also be executed substituting other Ras proteins or nucleotides, such as K-Ras G12D and K-Ras G13D.
(§3) The purpose of this biochemical assay was to measure the ability of test compounds to facilitate ternary complex formation between a nucleotide-loaded K-Ras isoform and Cyclophilin A; the resulting ternary complex disrupts binding to a BRAF^RBD construct, inhibiting K-Ras signaling through a RAF effector. Data is reported as IC50 values.
(§4) In assay buffer containing 25 mM HEPES pH 7.3, 0.002% Tween20, 0.1% BSA, 100 mM NaCl and 5 mM MgCl2, tagless Cyclophilin A, His6-K-Ras-GMPPNP, and GST-BRAF^RBD were combined in a 384-well assay plate at final concentrations of 25 μM, 12.5 nM, and 50 nM, respectively. Compound was present in plate wells as a 10-point 3-fold dilution series starting at a final concentration of 30 μM. After incubation at 25° C. for 3 hours, a mixture of anti-His Eu—W1024 and anti-GST allophycocyanin was then added to assay sample wells at final concentrations of 10 nM and 50 nM, respectively, and the reaction incubated for an additional 1.5 hours. […] Compounds that facilitate disruption of a K-Ras: RAF complex were identified as those eliciting a decrease in the TR-FRET ratio relative to DMSO control wells.

[2] = target: T2, NRAS Q61R (Homo sapiens (Human), UniProt P01111+P62937, Q61R); experiment: Ras-Raf disruption/FRET/MOA assay, NRAS Q61R; format: biochemical; details: read-out: NRAS Q61R FRET data IC50
T2 sequence (P01111 whole entry Q61R): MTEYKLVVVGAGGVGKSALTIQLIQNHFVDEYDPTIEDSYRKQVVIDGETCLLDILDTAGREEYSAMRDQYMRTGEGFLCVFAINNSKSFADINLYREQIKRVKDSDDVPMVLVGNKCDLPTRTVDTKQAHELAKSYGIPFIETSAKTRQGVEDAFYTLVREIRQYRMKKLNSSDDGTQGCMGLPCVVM
T2 sequence (P62937 whole entry): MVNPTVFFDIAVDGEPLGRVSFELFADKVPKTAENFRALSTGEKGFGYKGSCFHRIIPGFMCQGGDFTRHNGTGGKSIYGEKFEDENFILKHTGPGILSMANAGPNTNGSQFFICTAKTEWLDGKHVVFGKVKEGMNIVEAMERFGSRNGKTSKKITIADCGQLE
Description: as §1, §2, §3, §4

[3] = target: T3, NRAS WT (Homo sapiens (Human), UniProt P01111+P62937); experiment: Ras-Raf disruption/FRET/MOA assay, NRAS WT; format: biochemical; details: read-out: NRAS WT FRET IC50
T3 sequence (P01111 whole entry): as the sequence (P01111 whole entry Q61R) above, with R61Q counted along it
T3 sequence (P62937 whole entry): as the sequence (P62937 whole entry) above
Description: as §1, §2, §3, §4

[4] = target: KRAS WT binding to BRAF RBD (Homo sapiens (Human), UniProt P01116+P62937); experiment: Ras-Raf disruption/FRET/MOA assay, KRAS WT; format: biochemical
Sequence of KRAS WT binding to BRAF RBD (P01116 other isoform, or with tags, fused parts or gaps): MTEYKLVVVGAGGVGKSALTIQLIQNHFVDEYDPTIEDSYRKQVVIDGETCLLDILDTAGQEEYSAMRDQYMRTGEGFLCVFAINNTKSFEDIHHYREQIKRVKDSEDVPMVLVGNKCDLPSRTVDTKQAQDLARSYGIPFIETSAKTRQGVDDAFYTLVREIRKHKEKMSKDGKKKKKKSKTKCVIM
Sequence of KRAS WT binding to BRAF RBD (P62937 whole entry, the tested form may be a part): as the sequence (P62937 whole entry) above
Description: Disruption of B-Raf Ras-binding Domain (BRAF^RBD) Interaction with K-Ras by Compounds of the Invention (also called a FRET assay or an MOA assay)
(§5) Note—The following protocol describes a procedure for monitoring disruption of K-Ras G12C(GMP-PNP) binding to BRAF^RBD by a compound of the invention. This protocol may also be executed substituting other Ras proteins or nucleotides.
as §3
as §4, with “12.5 nM” for “12.5 nM,”, “of Anti-His” for “of anti-His”

[5] = target: K-Ras G12C(GMP-PNP) binding to BRAF RBD (Homo sapiens (Human), UniProt P01116+P62937, G12C); experiment: Disruption of BRAF RBD interaction with K-Ras (FRET / MOA assay), K-Ras G12C; format: biochemical; details: read-out: KRAS G12C FRET IC50
Sequence of K-Ras G12C(GMP-PNP) binding to BRAF RBD (P01116 other isoform, or with tags, fused parts or gaps G12C): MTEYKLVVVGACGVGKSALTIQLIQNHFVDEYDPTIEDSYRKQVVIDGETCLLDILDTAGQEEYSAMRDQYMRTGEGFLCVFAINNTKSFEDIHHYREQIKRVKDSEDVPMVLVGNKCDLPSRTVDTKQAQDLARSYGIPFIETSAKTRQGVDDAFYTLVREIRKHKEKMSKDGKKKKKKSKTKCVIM
Sequence of K-Ras G12C(GMP-PNP) binding to BRAF RBD (P62937 whole entry): as the sequence (P62937 whole entry) above
Summary of the method: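 TR-FRET readout: after 3 h compound incubation at 25 °C, anti-His Eu and anti-GST allophycocyanin (10 and 50 nM final) added for a further 1.5 h. Dilution series was 10-point, 3-fold, top 30 μM final. Ras–cyclophilin A ternary complex formation blocks the BRAF RBD interaction; IC50 derived from reduced FRET ratio relative to DMSO.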

[6] = target: KRAS G12S binding to BRAF RBD (Homo sapiens (Human), UniProt P01116+P62937, G12S); experiment: Ras-Raf disruption/FRET/MOA assay, KRAS G12S; format: biochemical
Sequence of KRAS G12S binding to BRAF RBD (P01116 other isoform, or with tags, fused parts or gaps G12S): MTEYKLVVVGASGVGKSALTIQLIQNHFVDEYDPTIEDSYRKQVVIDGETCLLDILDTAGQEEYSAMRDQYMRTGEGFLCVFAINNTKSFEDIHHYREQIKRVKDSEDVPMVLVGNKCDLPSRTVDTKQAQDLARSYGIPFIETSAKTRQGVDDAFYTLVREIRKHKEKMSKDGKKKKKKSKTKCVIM
Sequence of KRAS G12S binding to BRAF RBD (P62937 whole entry): as the sequence (P62937 whole entry) above
Description: as §5, §3
(§6) Compound was present in plate wells as a 10-point 3-fold dilution series starting at a final concentration of 30 μM. After incubation at 25° C. for 3 hours, a mixture of Anti-His Eu—W1024 and anti-GST allophycocyanin was then added to assay sample wells at final concentrations of 10 nM and 50 nM, respectively, and the reaction incubated for an additional 1.5 hours. […] Compounds that facilitate disruption of a K-Ras: RAF complex were identified as those eliciting a decrease in the TR-FRET ratio relative to DMSO control wells.

[7] = tested on: NCI-H358 (K-Ras G12C); experiment: CellTiter-Glo cell viability assay, NCI-H358; format: cell-based, human; details: Homo sapiens, NCI-H358, 120 h, 5-day treatment; read-out: H358 Cell Viability assay data (K-Ras G12C, IC50)
Summary of the method: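 Cells seeded, compound added directly to plates; day 5: plates to RT ~30 min, CellTiter-Glo luminescence; (sample/avg DMSO)*100; 4-parameter fit.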

[8] = target: T2, NRAS Q61R; experiment: Ras-Raf disruption/FRET/MOA assay (BRAF RBD, Cyclophilin A); format: biochemical
Summary of the method: (§7)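 TR-FRET readout: anti-His Eu-W1024 (10 nM) and anti-GST allophycocyanin (50 nM) added after 3 h, 25° C compound incubation, then 1.5 h more. Decrease in FRET ratio versus DMSO wells marks Ras:RAF disruption; IC50 reported.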

[9] = target: T1, NRAS Q61K; experiment: as above; format: biochemical
Summary of the method: as §7

[10] = target: KRAS Q61H (Homo sapiens (Human), UniProt P01116+P62937, Q61H); experiment: as above; format: biochemical
Summary of the method: (§8)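 TR-FRET read after 1.5 h with 10 nM anti-His Eu-W1024 and 50 nM anti-GST APC, following 3 h at 25 °C of GMPPNP-loaded His6-Ras (12.5 nM), GST-BRAF RBD (50 nM) and Cyclophilin A (25 μM) with compound from 30 μM final, 10 points, 3-fold. IC50 reported; pH 7.3 HEPES, 100 mM NaCl.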

[11] = target: NRAS G12C (Homo sapiens (Human), UniProt P01111+P62937, G12C); experiment: as above; format: biochemical; details: read-out: NRAS G12C FRET data IC50
Sequence of NRAS G12C (P01111 whole entry G12C): as the sequence (P01111 whole entry Q61R) above, with G12C, R61Q counted along it
Sequence of NRAS G12C (P62937 whole entry): as the sequence (P62937 whole entry) above
Summary of the method: as §7

[12] = target: KRAS G13D (Homo sapiens (Human), UniProt P01116+P62937, G13D); experiment: as above; format: biochemical; details: read-out: KRAS G13D FRET data IC50
Sequence of KRAS G13D (P01116 other isoform, or with tags, fused parts or gaps G13D): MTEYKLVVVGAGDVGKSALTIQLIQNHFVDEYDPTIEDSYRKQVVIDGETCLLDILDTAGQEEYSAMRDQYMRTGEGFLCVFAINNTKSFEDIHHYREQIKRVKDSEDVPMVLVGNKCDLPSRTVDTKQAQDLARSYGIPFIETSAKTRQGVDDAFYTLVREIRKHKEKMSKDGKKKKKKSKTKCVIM
Sequence of KRAS G13D (P62937 whole entry): as the sequence (P62937 whole entry) above
Summary of the method: as §8

[13] = target: KRAS G12D (Homo sapiens (Human), UniProt P01116+P62937, G12D); experiment: as above; format: biochemical; details: read-out: KRAS G12D FRET IC50
Sequence of KRAS G12D (P01116 other isoform, or with tags, fused parts or gaps G12D): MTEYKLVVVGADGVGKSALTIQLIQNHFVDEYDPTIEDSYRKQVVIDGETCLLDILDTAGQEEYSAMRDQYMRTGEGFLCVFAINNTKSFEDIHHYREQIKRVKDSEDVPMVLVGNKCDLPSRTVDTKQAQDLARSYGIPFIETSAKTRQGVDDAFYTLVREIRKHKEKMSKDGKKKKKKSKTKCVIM
Sequence of KRAS G12D (P62937 whole entry): as the sequence (P62937 whole entry) above
Summary of the method: as §8

[14] = target: KRAS G13C (Homo sapiens (Human), UniProt P01116+P62937, G13C); experiment: as above; format: biochemical; details: read-out: KRAS G13C FRET IC50
Summary of the method: as §8

[15] = target: KRAS G12S (Homo sapiens (Human), UniProt P01116+P62937, G12S); experiment: as above; format: biochemical; details: read-out: KRAS G12S FRET IC50
Sequence of KRAS G12S (P01116 other isoform, or with tags, fused parts or gaps G12S): as the sequence (P01116 other isoform, or with tags, fused parts or gaps G12S) above
Sequence of KRAS G12S (P62937 whole entry): as the sequence (P62937 whole entry) above
Summary of the method: as §8

[16] = target: KRAS G12C (Homo sapiens (Human), UniProt P01116+P62937, G12C); experiment: as above; format: biochemical; details: read-out: KRAS G12C FRET IC50
Sequence of KRAS G12C (P01116-2 other isoform, or with tags, fused parts or gaps G12C): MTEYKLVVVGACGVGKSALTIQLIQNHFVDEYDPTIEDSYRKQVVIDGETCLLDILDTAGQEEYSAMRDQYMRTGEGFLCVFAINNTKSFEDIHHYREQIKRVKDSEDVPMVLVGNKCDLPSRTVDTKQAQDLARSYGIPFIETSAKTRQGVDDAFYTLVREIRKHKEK
Sequence of KRAS G12C (P62937 whole entry): as the sequence (P62937 whole entry) above
Summary of the method: as §8

[17] = target: T3, NRAS WT; experiment: as above; format: biochemical
Summary of the method: as §7

[18] = target: KRAS WT (Homo sapiens (Human), UniProt P01116+P62937); experiment: as above; format: biochemical; details: read-out: KRAS WT FRET data IC50
Sequence of KRAS WT (P01116 other isoform, or with tags, fused parts or gaps): as the sequence (P01116 other isoform, or with tags, fused parts or gaps) above
Sequence of KRAS WT (P62937 whole entry): as the sequence (P62937 whole entry) above
Summary of the method: as §8

[19] = target: KRAS G12V (Homo sapiens (Human), UniProt P01116+P62937, G12V); experiment: as above; format: biochemical; details: read-out: KRAS G12V FRET IC50
Sequence of KRAS G12V (P01116 other isoform, or with tags, fused parts or gaps G12V): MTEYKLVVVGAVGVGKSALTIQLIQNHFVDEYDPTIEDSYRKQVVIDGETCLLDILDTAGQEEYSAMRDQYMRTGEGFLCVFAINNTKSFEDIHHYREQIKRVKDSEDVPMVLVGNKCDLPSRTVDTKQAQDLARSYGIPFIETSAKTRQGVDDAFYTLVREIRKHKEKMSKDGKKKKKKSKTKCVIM
Sequence of KRAS G12V (P62937 whole entry): as the sequence (P62937 whole entry) above
Summary of the method: as §8

[20] = tested on: NCI-H358 cells (K-Ras G12C); experiment: CellTiter-Glo cell viability, NCI-H358; format: cell-based, human; details: Homo sapiens, NCI-H358, 120 h, K-Ras G12C, 5-day treatment; read-out: H358 Cell Viability IC50
Summary of the method: (§9)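 Cells seeded, compound dispensed straight into wells, 5-day exposure. Plates brought to room temperature ~30 min, CellTiter-Glo luminescence measured. Normalized to DMSO (%), 4-parameter logistic fit.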

[21] = target: KRAS G12V binding to BRAF RBD (Homo sapiens (Human), UniProt P01116+P62937, G12V); experiment: Ras-Raf disruption/FRET/MOA assay, KRAS G12V; format: biochemical; details: read-out: KRAS G12V FRET IC50
Sequence of KRAS G12V binding to BRAF RBD (P01116 other isoform, or with tags, fused parts or gaps G12V): as the sequence (P01116 other isoform, or with tags, fused parts or gaps G12V) above
Sequence of KRAS G12V binding to BRAF RBD (P62937 whole entry): as the sequence (P62937 whole entry) above
Description: as §5, §3, §6

[22] = tested on: Capan-1 cells (K-Ras G12V); experiment: CellTiter-Glo cell viability, Capan-1; format: cell-based, human; details: Homo sapiens, CAPAN-1, 120 h, K-Ras G12V, 5-day treatment; read-out: Capan-1 Cell Viability IC50
Summary of the method: as §9

Measured: IC50

T1 sequence (P01111 whole entry Q61K, the tested form may be a part): as the sequence (P01111 whole entry Q61R) above, with R61K counted along it
T1 sequence (P62937 whole entry, the tested form may be a part): as the sequence (P62937 whole entry) above

CCn1c(-c2cccnc2[C@H](C)OC)c2c3cc(ccc31)-c1cc(O)cc(c1)C[C@H](NC(=O)[C@H](C(C)C)N(C)C(=O)[C@H]1CCCN(C(=O)[C@@H]3CN3)C1)C(=O)N1CCC[C@H](N1)C(=O)OCC(C)(C)C2 (atropisomer, axis not shown) [Example 238]
10 to 100 nM: [3]
100 to 1000 nM: [1] | [2]

CCn1c(-c2cccnc2[C@H](C)OC)c2c3cc(ccc31)-c1csc(n1)C[C@H](NC(=O)N1CC[C@@H]1COC)C(=O)N1CCC[C@H](N1)C(=O)OCC(C)(C)C2 [Compound A264]
10 to 100 nM: [4] | [5] | [6] | [7] | [11] | [16] | [19] | [21]
not listed: [1] | [2] | [3]
100 to 1000 nM: all other assays above
